Laboratory results taken from patent publication US20240225970A1, “A METHOD OF REDUCING SKIN IRRITATION, COMPRISING THE APPLICATION TO THE SKIN OF AN ALPHA-BISABOLOL PREPARED BY A BIOTECHNOLOGICAL PROCESS” (Givaudan SA, priority 2020, published 2024).

System: pruritus of the scalp
Test: Double-blind, placebo-controlled clinical evaluation of scalp itching intensity with shampoos containing 0.5% bisabolol
Format: in vivo, human
Conditions: for itching intensity, Mean +/− SEM: scale of 0-10, washed once a day, volunteers with pruritus of the scalp; for itching intensity, Mean +/− SEM / itching intensity, Δ % mean: shampoo with 0.5% by weight bisabolol; for itching intensity, Δ % mean: D14 versus D0 (T0)
Excerpt: Comparison of the improvement in skin soothing effect using shampoos formulated with bio-bisabolol, chemically-produced bisabolol and plant-derived bisabolol. Samples of the bio-bisabolol prepared according to Example 1, a commercially-available synthetic bisabolol and a bisabolol derived from chamomile oil were incorporated into shampoo formulations at 0.5% by weight. An untreated sample of the shampoo was included as placebo. A double-blind, inter-individual and placebo-controlled clinical evaluation was performed on 80 volunteers (both men and women of age 18 and over). The subjects had Fitzpatrick skin types I to IV, and all suffered from pruritus of the scalp. The volunteers washed and rinsed their hair once a day and itching intensity was evaluated on days 1 and 14, using a scale of 0-10, where 0 represents no itching and 10 represents […].

Row | SMILES | itching intensity, Mean +/− SEM (D0) | itching intensity, Mean +/− SEM (D14) | itching intensity, Δ % mean [%] | reduction in scalp irritation in comparison with the placebo group (after 14 days of application, p<0.1) [%] | reduction in scalp irritation in comparison with the placebo (in words) (after 14 days of application)
1 | CC(C)=CCC[C@@](C)(O)[C@@H]1CC=C(C)CC1 [Example 1 bio-bisabolol, (−)-α-bisabolol] | 4.3 ± 0.4 | 0.3 ± 0.2 | −93 | 25 | 
2 | CC(C)=CCC[C@](C)(O)[C@@H]1CC=C(C)CC1 [Plant bisabolol] | 4.8 ± 0.5 | 1.5 ± 0.4 | −69 |  | did not show any significant reduction
3 | CC(C)=CCC[C@](C)(O)[C@@H]1CC=C(C)CC1 [Synthetic bisabolol] | 4.4 ± 0.5 | 1.3 ± 0.4 | −70 |  | did not show any significant reduction
